According to article PMC3905854 (Nucleic Acids Research, 2013):

Assays:
DnaA (wtDnaA) = molecular target: T1, DnaA (wtDnaA) (Escherichia coli, UniProt P03004, H202Y); assay: ATP binding assay
T1 sequence (P03004 1-467 H202Y): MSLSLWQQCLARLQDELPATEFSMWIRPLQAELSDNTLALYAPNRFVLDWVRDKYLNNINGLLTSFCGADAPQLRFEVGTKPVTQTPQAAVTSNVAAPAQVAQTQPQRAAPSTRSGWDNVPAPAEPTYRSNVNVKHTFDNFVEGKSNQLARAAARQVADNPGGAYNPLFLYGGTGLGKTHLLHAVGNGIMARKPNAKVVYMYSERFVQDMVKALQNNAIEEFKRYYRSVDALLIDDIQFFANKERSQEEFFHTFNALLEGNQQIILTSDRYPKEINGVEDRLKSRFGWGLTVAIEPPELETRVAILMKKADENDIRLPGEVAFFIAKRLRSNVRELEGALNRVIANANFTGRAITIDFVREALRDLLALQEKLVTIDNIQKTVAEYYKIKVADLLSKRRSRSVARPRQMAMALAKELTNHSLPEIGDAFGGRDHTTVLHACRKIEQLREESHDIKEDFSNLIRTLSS

Hda (E. coli) = Hda (E. coli) (UniProt P69931); assay: SEC

| Compound | Kd (DnaA (wtDnaA)) [nM] | stoichiometry N (Hda (E. coli)) |
| --- | --- | --- |
| Nc1ncnc2c1ncn2[C@@H]1O[C@H](COP(=O)(O)OP(=O)(O)OP(=O)(O)O)[C@@H](O)[C@H]1O [ATP] | 360 | – |
| Hda (from UniProt P69931 1-233) (natural protein) | – | 2 |
